The target of data set [1] is UDP-N-acetylglucosamine 1-carboxyvinyltransferase (Escherichia coli K-12, UniProt P0A749). Nature of the data set: Inhibition of recombinant Escherichia coli MurA expressed in Escherichia coli NiCo21 using UNAG and PEP as substrate preincubated for 30 mins in presence of UNAG followed by PEP substrate addition and measured after 15 mins by malachite green based colorimetric assay.

Data set [2] is described as follows: Thiol reactivity of compound at pH 7.4 buffer at 100 uM and measured for 4 hrs every 5 mins in presence of DTNB and TCEP by microplate reader analysis. The data set is classed as physicochemical. The conditions noted are these: pH 7.4, 4 h.
Data set [3] addresses UDP-N-acetylglucosamine 1-carboxyvinyltransferase (Escherichia coli K-12) (UniProt P0A749). Nature of the data set: Irreversible inhibition of recombinant Escherichia coli MurA expressed in Escherichia coli NiCo21 using UNAG and PEP as substrate assessed as second-order rate constant for enzyme inactivation, ratio of Kinact/Ki preincubated for 30 mins in presence of UNAG followed by 100 fold dilution and PEP substrate addition and measured after 15 mins by malachite green based colorimetric assay. The conditions noted are these: time 45.0 min.

In a further data set the test system is Staphylococcus aureus. Nature of the data set: Antibacterial activity against Staphylococcus aureus ATCC 29213 assessed as bacterial growth inhibition at <= 128 ug/ml incubated for 24 hrs by broth dilution method. In kind it is functional, organism-based. The conditions noted are these: dose <= 128.0 µg/ml. For orientation: In broth dilution the organism is exposed to a series of concentrations in liquid medium.

The test system of another data set is Escherichia coli. Nature of the data set: Antibacterial activity against Escherichia coli ATCC 25922 assessed as bacterial growth inhibition at <=128 ug/ml incubated for 24 hrs by broth dilution method. The conditions noted are these: dose <= 128.0 µg/ml. In kind it is functional, organism-based.
The target of data set [4] is UDP-N-acetylglucosamine 1-carboxyvinyltransferase (Escherichia coli K-12) (UniProt P0A749). Nature of the data set: Inhibition of recombinant Escherichia coli MurA expressed in Escherichia coli NiCo21 assessed as residual activity using UNAG and PEP as substrate at 500 uM preincubated for 30 mins in presence of UNAG followed by PEP substrate addition and measured after 15 mins by malachite green based colorimetric assay. As to conditions: time 45.0 min.

The source of these data is ChEMBL document CHEMBL5352428, “Covalent inhibitors of bacterial peptidoglycan biosynthesis enzyme MurA with chloroacetamide warhead” (Eur J Med Chem, 2022).

Activity calls are given as the source filed them. No cut-off for these calls is given here.

Sequence of UDP-N-acetylglucosamine 1-carboxyvinyltransferase (Escherichia coli K-12) (P0A749 whole entry): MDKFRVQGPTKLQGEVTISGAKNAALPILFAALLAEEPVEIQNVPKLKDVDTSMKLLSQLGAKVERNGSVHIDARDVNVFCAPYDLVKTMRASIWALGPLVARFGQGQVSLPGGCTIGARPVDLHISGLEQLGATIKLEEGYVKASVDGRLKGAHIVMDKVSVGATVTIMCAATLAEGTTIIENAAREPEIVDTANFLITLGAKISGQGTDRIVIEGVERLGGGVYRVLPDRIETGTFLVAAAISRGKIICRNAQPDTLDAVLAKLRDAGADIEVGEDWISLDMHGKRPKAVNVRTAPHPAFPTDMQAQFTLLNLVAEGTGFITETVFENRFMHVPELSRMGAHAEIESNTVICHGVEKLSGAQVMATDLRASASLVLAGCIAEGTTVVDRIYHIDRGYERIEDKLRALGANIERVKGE
Sequence of UDP-N-acetylglucosamine 1-carboxyvinyltransferase (P0A749 whole entry): as above

Regarding `Cc1ccc(S(=O)(=O)NC(=O)CC2CCN(C(=O)CCl)CC2)cc1`, the concentration for half-maximal inhibition (IC50) in data set [1] was 137 µM. Further, the Drug metabolism result in data set [2] is on record as “Metabolite_Detected”. Further, in data set [3], the Ratio is 2.79 10^-4/µM/min. The result with Staphylococcus aureus and in the data set on Escherichia coli was inactive.
For the compound `O=C(CCl)NC1CCCCC1`, the Activity in data set [4] was 74%. In addition, in data set [2], the Drug metabolism entry is on record as “Metabolite_Notdetected”. Moreover, the outcome in the data set with Staphylococcus aureus and with Escherichia coli was inactive.
Consider `O=C(CCl)Nc1ccc2nsnc2c1`, for which, in data set [1], the IC50 came out at 287 µM. Also, the Drug metabolism entry in data set [2] is “Metabolite_Detected”. Besides, the Ratio in data set [3] was 4.84 10^-4/µM/min. Besides, the outcome in the data set with Staphylococcus aureus and in the data set with Escherichia coli was inactive.
On to `CCOC(=O)C1CCN(C(=O)CCl)CC1`, for which the Activity in data set [4] came out at 100%. Moreover, the Drug metabolism entry in data set [2] is reported as “Metabolite_Detected”. The result in the data set with Staphylococcus aureus and in the data set on Escherichia coli was inactive.
In the case of `O=C(O)C1CCN(C(=O)CCl)CC1`, the Activity in data set [4] was found to be 95%. In addition, the Drug metabolism entry in data set [2] was “Metabolite_Detected”. In addition, the result in the data set on Staphylococcus aureus and in the data set with Escherichia coli was inactive.
Consider `O=C(CCl)Nc1ccc(C(F)(F)F)cc1`, for which, in data set [4], the Activity amounted to 77%. Further, the Drug metabolism result in data set [2] is recorded as “Metabolite_Detected”. The result in the data set with Staphylococcus aureus and in the data set with Escherichia coli was inactive.
Consider `O=C(O)C1CCCN(C(=O)CCl)C1` (stereo unspecified), for which the Activity in data set [4] came to 75%. Moreover, the Drug metabolism result in data set [2] is “Metabolite_Detected”. Besides, the result with Staphylococcus aureus and in the data set on Escherichia coli was inactive.
Turning to `N#Cc1ccc(NC(=O)CCl)cc1`, the Activity in data set [4] was found to be 89%. For the same compound, the Drug metabolism result in data set [2] is reported as “Metabolite_Detected”. Moreover, the result in the data set with Staphylococcus aureus and in the data set on Escherichia coli was inactive.
For `O=C(CCl)N1CCC(COP(=O)(O)O)C1` (stereo unspecified), the Activity in data set [4] is 47%. Also, the Drug metabolism result in data set [2] is “Metabolite_Detected”. Besides, the outcome with Staphylococcus aureus and with Escherichia coli was inactive.
For the compound `O=C(CCl)Nc1ccncc1`, the Activity in data set [4] amounted to 77%. Besides, the Drug metabolism result in data set [2] is recorded as “Metabolite_Detected”. Besides, the outcome in the data set with Staphylococcus aureus and in the data set on Escherichia coli was inactive.
For the compound `O=C(CCl)N1CCCCC1`, the Activity in data set [4] was 79%. In addition, in data set [2], the Drug metabolism entry is on record as “Metabolite_Detected”. Further, the result in the data set on Staphylococcus aureus and in the data set with Escherichia coli was inactive.
Consider `O=C(CCl)Nc1cccc2ccccc12`, for which the Activity in data set [4] was found to be 81%. Besides, the Drug metabolism result in data set [2] was “Metabolite_Detected”. The outcome in the data set with Staphylococcus aureus and with Escherichia coli was inactive.
As to `COC(=O)c1ccc(NC(=O)CCl)o1`, in data set [4], the Activity was 75%. Besides, the Drug metabolism result in data set [2] was “Metabolite_Detected”. In addition, the outcome in the data set on Staphylococcus aureus and in the data set with Escherichia coli was inactive.
`CCOC(=O)N1CCN(C(=O)CCl)CC1`: the Activity in data set [4] was 95%. Further, the Drug metabolism entry in data set [2] is listed as “Metabolite_Detected”. Besides, the outcome in the data set with Staphylococcus aureus and with Escherichia coli was inactive.
As to `O=C(CCl)N1CCN(c2ccccc2)CC1`, the Activity in data set [4] was 90%. For the same compound, the outcome in the data set on Staphylococcus aureus and in the data set on Escherichia coli was inactive.
`O=C(CCl)N1CCCC(OP(=O)(Oc2ccccc2)Oc2ccccc2)C1` (stereo unspecified): the IC50 in data set [1] worked out at 543 µM. In data set [2], the Drug metabolism result is “Metabolite_Detected”. The result with Staphylococcus aureus and in the data set with Escherichia coli was inactive.
For `O=C(CCl)Nc1ccc2ccccc2c1`, the Activity in data set [4] is 83%. Also, in data set [2], the Drug metabolism result was “Metabolite_Detected”. In addition, the result with Staphylococcus aureus and in the data set with Escherichia coli was inactive.
For the compound `CCOC(=O)C1CCCN(C(=O)CCl)C1` (stereo unspecified), in data set [4], the Activity amounted to 100%. Further, the Drug metabolism entry in data set [2] was “Metabolite_Detected”. Also, the outcome in the data set with Staphylococcus aureus and in the data set on Escherichia coli was inactive.
As to `O=C(CCl)Nc1ccc(-c2nnn[nH]2)cc1`, the Activity in data set [4] turned out to be 100%. For the same compound, the Drug metabolism entry in data set [2] is “Metabolite_Detected”. The result with Staphylococcus aureus and in the data set on Escherichia coli was inactive.
With `O=C(CCl)NC1CCC2CCCCC2C1` (stereo unspecified), the Activity in data set [4] is 79%. Also, in data set [2], the Drug metabolism result is recorded as “Metabolite_Notdetected”. Besides, the result in the data set on Staphylococcus aureus and in the data set with Escherichia coli was inactive.
With `COc1ccc2nc(SC3CCN(C(=O)CCl)CC3)[nH]c2n1`, the IC50 in data set [1] was 172 µM. In addition, in data set [2], the Drug metabolism result is on record as “Metabolite_Detected”. In addition, the result with Staphylococcus aureus and in the data set with Escherichia coli was inactive.
For `NC1CCN(C(=O)CCl)CC1`, the Activity in data set [4] came out at 82%. The Drug metabolism result in data set [2] is recorded as “Metabolite_Detected”. Further, the outcome in the data set with Staphylococcus aureus and with Escherichia coli was inactive.
In the case of `O=C(CCl)N1CCN(Cc2ccc3c(c2)OCO3)CC1`, in data set [4], the Activity is 99%. In addition, the Drug metabolism result in data set [2] was “Metabolite_Detected”. The result in the data set on Staphylococcus aureus and in the data set on Escherichia coli was inactive.
As to `O=C(CCl)N1CCC(Sc2nnc(-c3ccccc3)o2)CC1`, the IC50 in data set [1] was found to be 162 µM. Besides, the Drug metabolism result in data set [2] is reported as “Metabolite_Detected”. The outcome in the data set on Staphylococcus aureus and in the data set on Escherichia coli was inactive.
For the compound `O=C(CCl)Nc1ccc(-c2ncco2)cc1`, the Activity in data set [4] worked out at 71%. The Drug metabolism result in data set [2] is on record as “Metabolite_Detected”. Further, the result in the data set on Staphylococcus aureus and in the data set with Escherichia coli was inactive.
In the case of `COc1ccc(N2CCN(C(=O)CCl)CC2)cc1`, in data set [4], the Activity is 77%. The Drug metabolism result in data set [2] is on record as “Metabolite_Detected”. The result in the data set with Staphylococcus aureus and with Escherichia coli was inactive.
Turning to `O=C(CCl)N1CCC(COP(=O)(Oc2ccccc2)Oc2ccccc2)C1` (stereo unspecified), the IC50 in data set [1] was determined as 311 µM. In addition, the Drug metabolism entry in data set [2] was “Metabolite_Detected”. Besides, the result with Staphylococcus aureus and in the data set on Escherichia coli was inactive.
Turning to `CC1CCCN(C(=O)CCl)C1` (stereo unspecified), in data set [4], the Activity was found to be 80%. Also, the Drug metabolism result in data set [2] is on record as “Metabolite_Detected”. Also, the result with Staphylococcus aureus and in the data set with Escherichia coli was inactive.
In the case of `CC(C)CNC(=O)CCl`, the Activity in data set [4] amounted to 90%. Further, the Drug metabolism entry in data set [2] is given as “Metabolite_Notdetected”. Also, the outcome in the data set on Staphylococcus aureus and with Escherichia coli was inactive.
For the compound `Cc1cc(NC(=O)CCl)on1`, the Activity in data set [4] came to 71%. The Drug metabolism entry in data set [2] is “Metabolite_Detected”. In addition, the result in the data set on Staphylococcus aureus and in the data set with Escherichia coli was inactive.
For the compound `O=C(CCl)N1CCc2ccccc2C1`, the Activity in data set [4] was 70%. The Drug metabolism result in data set [2] was “Metabolite_Detected”. In addition, the outcome with Staphylococcus aureus and with Escherichia coli was inactive.
As for `O=C(CCl)N1CCOCC1`, in data set [4], the Activity is 87%. Also, in data set [2], the Drug metabolism result was “Metabolite_Detected”. Moreover, the outcome with Staphylococcus aureus and with Escherichia coli was inactive.
With `O=C(CCl)N1CCCc2ccccc21`, in data set [4], the Activity was determined as 73%. Also, the Drug metabolism result in data set [2] is listed as “Metabolite_Detected”. The result with Staphylococcus aureus and in the data set on Escherichia coli was inactive.
As for `O=C(CCl)N1CCN(CC(=O)N2CCCCC2)CC1`, in data set [4], the Activity was 81%. Further, the Drug metabolism result in data set [2] is “Metabolite_Detected”. The outcome in the data set with Staphylococcus aureus and in the data set on Escherichia coli was inactive.
`O=C(CCl)N1CCC(c2ccccc2)CC1`: the Activity in data set [4] came to 71%. Besides, the Drug metabolism result in data set [2] is “Metabolite_Detected”. Besides, the result with Staphylococcus aureus and in the data set on Escherichia coli was inactive.
As for `CC(C)(C)OC(=O)NC1CCN(C(=O)CCl)CC1`, the Activity in data set [4] was 61%. Besides, the Drug metabolism entry in data set [2] was “Metabolite_Detected”. Moreover, the result with Staphylococcus aureus and in the data set with Escherichia coli was inactive.
Take `COc1cc(NC(=O)CCl)cc(OC)c1OC`: the Activity in data set [4] is 92%. Besides, the Drug metabolism entry in data set [2] is “Metabolite_Detected”. For the same compound, the result in the data set with Staphylococcus aureus and in the data set on Escherichia coli was inactive.
For the compound `O=C(CCl)NC1CCCC(OP(=O)(Oc2ccccc2)Oc2ccccc2)C1` (stereo unspecified), the Activity in data set [4] amounted to 89%. Moreover, the Drug metabolism entry in data set [2] is reported as “Metabolite_Detected”. Also, the result with Staphylococcus aureus and with Escherichia coli was inactive.
Turning to `O=C(CCl)NC12CC3CC(CC(C3)C1)C2`, the Activity in data set [4] amounted to 77%. Also, the Drug metabolism entry in data set [2] is “Metabolite_Notdetected”. Moreover, the outcome in the data set on Staphylococcus aureus and with Escherichia coli was inactive.
On to `CCCCOc1ccc(NC(=O)CCl)cc1`, for which, in data set [4], the Activity turned out to be 100%. In addition, the Drug metabolism entry in data set [2] is reported as “Metabolite_Detected”. The outcome with Staphylococcus aureus and in the data set with Escherichia coli was inactive.

The IC50 is the concentration needed to halve the response being measured.
